# Target: T1, STING (Homo sapiens, UniProt Q86WV6)
# T1 construct: gene STING1; human STING WT protein 6His-tagged (recombinant)
# Experiment: HTRF ligand-competitive binding assay with recombinant human STING; supported by CETSA in THP-1 cells
# T1 sequence (Q86WV6 whole entry): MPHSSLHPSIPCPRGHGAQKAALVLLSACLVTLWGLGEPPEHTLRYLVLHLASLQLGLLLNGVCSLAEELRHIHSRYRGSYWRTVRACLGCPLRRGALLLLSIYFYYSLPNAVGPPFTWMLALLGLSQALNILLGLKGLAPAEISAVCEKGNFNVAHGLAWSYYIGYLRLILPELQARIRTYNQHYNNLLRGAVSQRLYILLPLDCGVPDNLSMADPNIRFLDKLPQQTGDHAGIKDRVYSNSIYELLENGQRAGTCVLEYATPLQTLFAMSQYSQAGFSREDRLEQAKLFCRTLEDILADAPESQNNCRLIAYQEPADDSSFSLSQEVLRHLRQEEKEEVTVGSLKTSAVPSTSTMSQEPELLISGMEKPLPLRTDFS
compound,measurement,value
Nc1ccc(C(=O)N2CCc3cc(S(=O)(=O)N4C[C@H](c5ccccc5)NC4=O)ccc32)cc1 [DW2282],STING competitive binding potency,> 10 µM

# From paper PMC8773171, “Development of Small-Molecule STING Activators for Cancer Immunotherapy” (Biomedicines, 2021)
